Measured values reported in patent US20120230951A1 (priority 2011, published 2012).
pEC50: −log10 of the molar value.

System: HCV GT1b replicon (2209-23 cell line, GT-1b Con1 subgenomic replicon in Huh-7)
Experiment: HCV GT1b replicon luciferase reporter assay
Assay type: cell-based
Details: Hepatitis C virus, Huh-7, 2209-23 cells (GT-1b Con1), Renilla luciferase read 72 hours after addition of compounds
Description: Determination of compounds HCV GT1b inhibitory replicon activity using the replicon luciferase reporter assay
The 2209-23 cell line was developed at Roche by stable transfection of the hepatoma cell line Huh-7 with a GT-1b Con1 subgenomic bicistronic replicon as previously described. Subgenomic replicon cell line was established in cured Huh7 cells, obtained from R. Bartenschlager (J. Virol. 2003 March; 77 (5):3007-19) The GT-1a H77 subgenomic replicon vector pRLuc H771b 75 S/I, was created by replacing the non structural region of the GT-1b Con1 subgenomic replicon by the one of the H77 strain, except for the first 75 amino acids of the NS3 protein that are from GT-1b Con1 strain. (J. Virol. 2001 77:5352-59) The GT-1a pRLuc H771b 75 S/I subgenomic replicon cell line was established in cured Huh7 cells, obtained from R. Bartenschlager. (J. Virol. 2003 March; 77 (5):3007-19)
All the subgenomic replicon cell lines were cultured in Dulbecco's Modified Eagle Medium (DMEM-Glutamax™-I; Invitrogen Cat #10569-010). The medium was supplemented with 10% Fetal Bovine Serum (Invitrogen Cat #10082-147), 1% penicillin/streptomycin (Mediatech Cat #30-002-CI) and 500 μg/ml of G418 (Mediatech Cat #30-234-CI). Cells were maintained at 37° C. in a humidified 5% CO2 atmosphere.
2209-23 cells were plated at a cell density of 5000 cells per well in 96 well plates (Becton Dickinson, Cat #35 3296). Cells were plated in 90 μl of Dulbecco's Modified Eagle Medium (DMEM-Glutamax™-I), (Invitrogen Cat #10569-010) medium was supplemented with 5% Fetal Bovine Serum (Invitrogen Cat #10082-147), 1% penicillin/streptomycin (Mediatech Cat #30-002-CI). The pRluc H771b 75 S/I cells were plated in 96-well plate at 3000 cells/well in DMEM-Glutamax™-I containing 5% FBS and 1% penicillin/streptomycin in 90 μl final volume. Cells were allowed to equilibrate for 24 hours at 37° C. and 5% CO2 at which time compounds were added. Compounds (or medium as a control) were added 24 hours post-plating in 3 fold dilutions at a final DMSO concentration of 1% in 10 ul volume. Renilla luciferase reporter signal was read 72 hours after addition of compounds using the Renilla Luciferase Assay System (Promega, cat #E2820). EC50 values were defined as the compound concentration at which a 50% reduction in the levels of renilla luciferase reporter was observed as compared to control samples in the absence of compound and was determined by non-linear fitting of compound dose-response data. The EC50 was approximated if maximum percentage inhibition was less than 90% and more than 70%.

Row | SMILES | pEC50
1 | COC(=O)N[C@H]1CCc2cccc3c2N(C1=O)[C@H](c1ncc(-c2ccc(-c4ccc(-c5cnc([C@@H]6CCCN6C(=O)[C@@H](NC(=O)OC)C(C)C)[nH]5)cc4)cc2)[nH]1)C3 [Compound I-66, {(2S,5S)-2-[5-(4′-{2-[(S)-1-((S)-2-Methoxycarbonylamino-3-methyl-butyryl)-pyrrolidin-2-yl]-3H-imidazol-4-yl}-biphenyl-4-yl)-1H-imidazol-2-yl]-4-oxo-1,2,4,5,6,7-hexahydro-azepino[3,2,1-hi]indol-5-yl}-carbamic acid methyl ester] | 10.44

System: GT-1a pRLuc H771b 75 S/I subgenomic replicon cell line
Experiment: HCV GT-1a replicon luciferase reporter assay
Assay type: cell-based
Details: Hepatitis C virus, GT1A, 72 h, read-out: GT-1a (IC50) (nM)
How it was run: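 Huh-7-derived subgenomic replicon cells (GT-1b Con1 2209-23, 5000/well; GT-1a H77 chimera with Con1 NS3 first 75 aa, 3000/well) in 5% FBS DMEM; compounds added 24 h post-plating, 3-fold dilutions, 1% DMSO. Renilla luciferase read after 72 h; EC50 is 50% signal reduction versus untreated, non-linear fit.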

Row | SMILES | IC50 [nM]
2 | COC(=O)N[C@H]1CCc2cccc3c2N(C1=O)[C@H](c1ncc(-c2ccc(-c4ccc(-c5cnc([C@@H]6CCCN6C(=O)[C@@H](NC(=O)OC)C6CC6)[nH]5)cc4)cc2)[nH]1)C3 [Compound I-44] | 11.4
3 | CC[C@H](NC(=O)OC)C(=O)N1CCC[C@H]1c1ncc(-c2ccc(-c3ccc(-c4cnc([C@@H]5Cc6cccc7c6N5C(=O)[C@@H](NC(=O)OC)CC7)[nH]4)cc3)cc2)[nH]1 [Compound I-45] | 17.1
4 | COCC[C@H](NC(=O)OC)C(=O)N1CCC[C@H]1c1ncc(-c2ccc(-c3ccc(-c4cnc([C@@H]5Cc6cccc7c6N5C(=O)[C@@H](NC(=O)OC)CC7)[nH]4)cc3)cc2)[nH]1 [Compound I-46] | 2.96
5 | COC(=O)N[C@H]1CCc2cccc3c2N(C1=O)[C@H](c1ncc(-c2ccc(-c4ccc(-c5cnc([C@@H]6CCCN6C(=O)C6(NC(=O)OC)COC6)[nH]5)cc4)cc2)[nH]1)C3 [Compound I-47] | 110
6 | COC(=O)NC(C(=O)N1CCC[C@H]1c1ncc(-c2ccc(-c3ccc(-c4cnc([C@@H]5Cc6cccc7c6N5C(=O)[C@@H](NC(=O)OC)CC7)[nH]4)cc3)cc2)[nH]1)C1CCOCC1 (stereo partly shown) [Compound I-48] | 2.83
7 | COC(=O)N[C@@H](C)C(=O)N1CCC[C@H]1c1ncc(-c2ccc(-c3ccc(-c4cnc([C@@H]5Cc6cccc7c6N5C(=O)[C@@H](NC(=O)OC)CC7)[nH]4)cc3)cc2)[nH]1 [Compound I-49, {(2S,5S)-2-[5-(4-{2-[(S)-1-((S)-2-Methoxycarbonylamino-propionyl)-pyrolidin-2-yl]-3H-imidazol-4-yl}-biphenyl-4-yl)-1H-imidazol-2-yl]-4-oxo-1,2,4,5,6,7-hexahydro-azepino[3,2,1-hi]indol-5-yl}-carbamic acid methyl ester] | 3.91
8 | CC[C@H](C)[C@H](NC(=O)OC)C(=O)N1CCC[C@H]1c1ncc(-c2ccc3nc(-c4ccc(-c5cnc([C@@H]6Cc7cccc8c7N6C(=O)[C@@H](NC(=O)OC)CC8)[nH]5)cc4)cnc3c2)[nH]1 [Compound I-53, ((2S,5S)-2-{5-[4-(6-{2-[(S)-1-((2S,3S)-2-Methoxycarbonylamino-3-methyl-pentanoyl)-pyrrolidin-2-yl]-3H-imidazol-4-yl}-quinoxalin-2-yl)-phenyl]-1H-imidazol-2-yl}-4-oxo-1,2,4,5,6,7-hexahydroazepino[3,2,1-hi]indol-5yl)-carbamic acid methyl ester] | 1.36
9 | COC(=O)N[C@H]1CCc2cccc3c2N(C1=O)[C@H](c1ncc(-c2ccc(-c4cnc5cc(-c6cnc([C@@H]7CCCN7C(=O)[C@@H](NC(=O)OC)C(C)(C)C)[nH]6)ccc5n4)cc2)[nH]1)C3 [Compound I-54, ((2S,5S)-2-{5-[4-(6-{2-[(S)-1-((S)-2-Methoxycarbonylamino-3,3-dimethyl-butyryl)-pyrrolidin-2-yl]-3H-imidazol-4-yl}-quinoxalin-2-yl)-phenyl]-1H-imidazol-2-yl}-4-oxo-1,2,4,5,6,7-hexahydro-azepino[3,2,1-hi]indol-5-yl)-carbamic acid methyl ester] | 0.949
10 | CC[C@H](C)[C@H](NC(=O)OC)C(=O)N1CCC[C@H]1c1ncc(-c2ccc(-c3cnc4cc(-c5cnc([C@@H]6Cc7cccc8c7N6C(=O)[C@@H](NC(=O)OC)CC8)[nH]5)ccc4n3)cc2)[nH]1 [Compound I-56, ((2S,5S)-2-{5-[2-(4-{2-[(S)-1-((2S,3S)-2-Methoxycarbonylamino-3 methyl-pentanoyl)-pyrrolidin-2-yl]-3H-imidazol-4-yl}-phenyl)quinoxalin-6-yl]-1H-imidazol-2-yl}-4-oxo-1,2,4,5,6,7-hexahydro-azepino[3,2,1-hi]indol-5-yl)-carbamic acid methyl ester] | 3
11 | COC(=O)N[C@H]1CCc2cccc3c2N(C1=O)[C@H](c1ncc(-c2ccc(-c4ncc(-c5cnc([C@@H]6CC(F)(F)CN6C(=O)[C@@H](NC(=O)OC)C(C)C)[nH]5)cn4)cc2)[nH]1)C3 [Compound I-57, ((2S,5S)-2-{4-[4-(5-{2-[(S)-4,4-Difluoro-1-(2-methoxycarbonylamino-3-methyl-butyryl)-pyrrolidin-2-yl]-3H-imidazol-4-yl}-pyrimidin-2-yl)-phenyl]-1H-imidazol-2-yl}-4-oxo-1,2,4,5,6,7-hexahydro-azepino[3,2,1-hi]indol-5-yl)-carbamic acid methyl ester] | 17.1
12 | CC[C@H](C)[C@H](NC(=O)OC)C(=O)N1CC(F)(F)C[C@H]1c1ncc(-c2cnc(-c3ccc(-c4cnc([C@@H]5Cc6cccc7c6N5C(=O)[C@@H](NC(=O)OC)CC7)[nH]4)cc3)nc2)[nH]1 [Compound I-58, ((1S,2S)-1-{(S)-4,4-Difluoro-2-[5-(2-{4-[2-((2S,5S)-5-methoxycarbonylamino-4-oxo-1,2,4,5,6,7-hexahydro-azepino[3,2,1-hi]indol-2-yl)-1H-imidazol-4-yl]-phenyl}-pyrimidin-5-yl)-1H-imidazol-2-yl]-pyrrolidine-1-carbonyl}-2-methyl-butyl)-carbamic acid methyl ester] | 26.1
13 | COC(=O)N[C@H]1CCc2cccc3c2N(C1=O)[C@H](c1ncc(-c2ccc(-c4ccc(-c5nnc([C@@H]6CCCN6C(=O)[C@H](NC(=O)OC)c6ccccc6)[nH]5)cc4)cc2)[nH]1)C3 [Compound I-60, {(2S,5S)-2-[5-(4′-{5-[(S)-1-((R)-2-Methoxycarbonylamino-2-phenyl-acetyl)-pyrrolidin-2-yl]-4H-[1,2,4]triazol-3-yl}-biphenyl-4-yl)-1H-imidazol-2-yl]-4-oxo-1,2,4,5,6,7-hexahydro-azepino[3,2,1-hi]indol-5-yl}-carbamic acid methyl ester] | 51.4
14 | COC(=O)N[C@H]1CCc2cccc3c2N(C1=O)[C@H](c1ncc(-c2ccc(-c4ccc(-c5nnc([C@@H]6CCCN6C(=O)[C@@H](NC(=O)OC)C(C)C)[nH]5)cc4)cc2)[nH]1)C3 [Compound I-61, {(2S,5S)-2-[5-(4′-{5-[(S)-1-((S)-2-Methoxycarbonylamino-3-methyl-butyryl)-pyrrolidin-2-yl]-4H-[1,2,4]triazol-3-yl}-biphenyl-4-yl)-1H-imidazol-2-yl]-4-oxo-1,2,4,5,6,7-hexahydro-azepino[3,2,1-hi]indol-5-yl}-carbamic acid methyl ester] | 67.2
15 | COC(=O)N[C@H]1CCc2cccc3c2N(C1=O)[C@H](c1ncc(-c2ccc(-c4ccc(-c5cnc([C@@H]6COCCN6C(=O)[C@@H](NC(=O)OC)C(C)C)[nH]5)cc4)cc2)[nH]1)C3 [Compound I-64, {(2S,5S)-2-[5-(4′-{2-[(R)-4-((S)-2-Methoxycarbonylamino-3-methyl-butyryl)-morpholin-3-yl]-3H-imidazol-4-yl}-biphenyl-4-yl)-1H-imidazol-2-yl]-4-oxo-1,2,4,5,6,7-hexahydro-azepino[3,2,1-hi]indol-5-yl}-carbamic acid methyl ester] | 9.87
16 | COC(=O)N[C@H]1CCc2cccc3c2N(C1=O)[C@H](c1ncc(-c2ccc(-c4ccc(-c5cnc(C6C7CC7CN6C(=O)[C@H](NC(=O)OC)c6ccccc6)[nH]5)cc4)cc2)[nH]1)C3 (stereo partly drawn) [Compound I-65, {(2S,5S)-2-[5-(4′-{2-[(S)-3-((R)-2-Methoxycarbonylamino-2-phenyl-acetyl)-3-aza-bicyclo[3.1.0]hex-2-yl]-3H-imidazol-4-yl}-biphenyl-4-yl)-1H-imidazol-2-yl]-4-oxo-1,2,4,5,6,7-hexahydro-azepino[3,2,1-hi]indol-5-yl}-carbamic acid methyl ester] | 67.2
